Measured values from patent US20080261994A1, “CYCLOPROPANE COMPOUNDS AND PHARMACEUTICAL USE THEREOF” (Japan Tobacco Inc., priority 2003, published 2008).
pIC50: −log10 of the molar value. Structures can show the parent of a compound that is named as a salt. Where two headings read alike, the source gives them in different places.

Assays:
Format in all cases: biochemical
aggrecanase-1 = biological target: T1, aggrecanase-1 (Homo sapiens, UniProt O75173); test: Aggrecanase-1 inhibitory action (Particle Assay, GAG release from aggrecan-containing polyacrylamide particles)
T1 sequence (O75173 213-837): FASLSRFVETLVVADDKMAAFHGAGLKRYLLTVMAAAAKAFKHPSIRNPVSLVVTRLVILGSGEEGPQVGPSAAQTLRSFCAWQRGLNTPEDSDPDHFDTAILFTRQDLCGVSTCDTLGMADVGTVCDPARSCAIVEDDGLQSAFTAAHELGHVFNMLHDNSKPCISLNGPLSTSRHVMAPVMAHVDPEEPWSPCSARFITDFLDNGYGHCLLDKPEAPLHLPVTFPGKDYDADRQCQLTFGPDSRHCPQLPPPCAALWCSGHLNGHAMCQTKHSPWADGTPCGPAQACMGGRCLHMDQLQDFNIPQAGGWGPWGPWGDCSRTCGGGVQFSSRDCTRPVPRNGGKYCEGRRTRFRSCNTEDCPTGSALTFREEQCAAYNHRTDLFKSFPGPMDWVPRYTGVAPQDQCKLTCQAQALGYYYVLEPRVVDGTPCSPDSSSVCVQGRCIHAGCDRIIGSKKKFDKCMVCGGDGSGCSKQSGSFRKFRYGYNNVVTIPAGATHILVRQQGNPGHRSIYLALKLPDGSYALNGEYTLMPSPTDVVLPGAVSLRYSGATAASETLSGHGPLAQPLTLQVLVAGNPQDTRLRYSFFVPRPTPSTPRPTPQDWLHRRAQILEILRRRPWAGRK
Outline: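 Enzyme and compound incubated with aggrecan-containing polyacrylamide particles in Tris-HCl buffer at 37° C for 15 h. Released GAG in supernatant measured with 1,9-dimethylmethylene blue at 595 nm against chondroitin sulfate standard; % inhibition from enzyme-free and inhibitor-free wells, reported as TC50 (μM).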

MMP-1 = biological target: T2, MMP-1 (Homo sapiens, UniProt P03956); test: MMP-1 inhibitory action (Type I collagen Activity Measurement kit, FITC-labeled collagen type I)
T2 sequence (P03956 100-469): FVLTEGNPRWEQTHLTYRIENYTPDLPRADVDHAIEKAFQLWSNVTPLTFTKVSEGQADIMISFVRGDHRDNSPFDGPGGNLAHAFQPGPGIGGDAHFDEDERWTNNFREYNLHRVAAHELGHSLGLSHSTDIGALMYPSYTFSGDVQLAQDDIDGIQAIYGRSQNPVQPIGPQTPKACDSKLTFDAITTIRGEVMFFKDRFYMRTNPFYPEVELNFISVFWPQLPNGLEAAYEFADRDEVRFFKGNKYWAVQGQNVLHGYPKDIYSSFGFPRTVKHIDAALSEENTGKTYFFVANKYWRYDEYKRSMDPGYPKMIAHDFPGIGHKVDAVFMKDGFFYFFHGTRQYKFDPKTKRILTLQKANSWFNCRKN

Recombinant Human MMP-13 = biological target: T3, Recombinant Human MMP-13 (Homo sapiens, UniProt P45452); test: MMP-13 inhibitory activity (MMP-13 specific fluorescent substrate with quencher)
T3 construct: purchased R&D systems 511-MM
Outline: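 Recombinant human MMP-13 with test compound, reaction started with quenched fluorogenic peptide 7-MCA-Pro-CHA-Gly-NVal-His-Ala-DPA in Tris-HCl buffer, 1 h at 25 °C, stopped with acetic acid. Fluorescence at Ex 325/Em 405 nm; % inhibition versus enzyme-free and inhibitor-free wells, reported as IC50 (μM).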

[1] = Experimental Example 1, read-out: IC50 AG1
[2] = Experimental Example 2, read-out: IC50 MMP1
[3] = Experimental Example 3, read-out: IC50 MMP13
[4] = aggrecanase-1 inhibitory action, read-out: IC50 AG1 (Experimental Example 1)
[5] = MMP-1 inhibitory action, FITC-labeled collagen type I, 37° C. for 3 hr, read-out: IC50 MMP1 (Experimental Example 2)
[6] = Recombinant Human MMP-13, fluorescent substrate, 25° C. for 1 h, read-out: IC50 MMP13 (Experimental Example 3)

pIC50 (aggrecanase-1; [1])	pIC50 (MMP-1; [2])	pIC50 (Recombinant Human MMP-13; [3])	pIC50 (aggrecanase-1; [4])	pIC50 (MMP-1; [5])	pIC50 (Recombinant Human MMP-13; [6])	SMILES
> 6.00	≤ 6.00	> 6.00	–	–	–	CCNC(=O)OCC1(c2ccccc2)CC1(NS(=O)(=O)c1ccc(-c2cc(C(F)(F)F)on2)s1)C(=O)O (stereo not drawn) [Example 2-321]
≤ 6.00	≤ 6.00	> 6.00	–	–	–	O=C(O)C1(NS(=O)(=O)c2ccc(OCc3ccc(Cl)cc3Cl)cc2)C2CCc3ccccc3C21 (stereo not drawn) [Example 2-355]
–	–	–	> 6.00	≤ 5.00	> 7.00	O=C(O)[C@]1(NS(=O)(=O)c2ccc(-c3cc(C(F)F)on3)cc2)C[C@@H]1c1ccccc1 [Example 2-152]
–	–	–	> 7.00	≤ 6.00	> 7.00	O=C(O)[C@]1(NS(=O)(=O)c2ccc(-c3ccc(Cl)cc3)s2)C[C@@H]1c1cccc(NCc2cccnc2)c1 [Example 2-173]
> 7.00	> 6.00	> 7.00	–	–	–	O=C(Cc1ccc([C@@H]2C[C@]2(NS(=O)(=O)c2ccc(-c3cc(C(F)(F)F)on3)s2)C(=O)O)cc1)N1CCOCC1 [Example 2-291]
–	–	–	> 7.00	≤ 6.00	> 6.00	O=C(O)C1(NS(=O)(=O)c2ccc(-c3ccc(Cl)cc3)s2)CC1(CCCO)c1ccccc1 (stereo not drawn) [Example 2-227]
> 6.00	≤ 6.00	> 7.00	–	–	–	O=C1CCCN1c1cccc(C2CC2(NS(=O)(=O)c2ccc(-c3cc(C(F)(F)F)on3)s2)C(=O)O)c1 (stereo not drawn) [Example 2-276]
> 7.00	> 6.00	> 7.00	–	–	–	O=C(O)C1(NS(=O)(=O)c2ccc(-c3cc(C(F)F)on3)s2)C2CCCc3ccccc3C21 (stereo not drawn) [Example 2-383]
≤ 6.00	≤ 5.00	> 6.00	–	–	–	O=C(NO)C1(NS(=O)(=O)c2ccc(-c3ccc(Cl)cc3)s2)C2CCCc3ccccc3C21 (stereo not drawn) [Example 2-391]
–	–	–	> 7.00	≤ 5.00	> 7.00	O=C(CCc1cccc(C2CC2(NS(=O)(=O)c2ccc(-c3ccc(Cl)cc3)s2)C(=O)O)c1)N1CCSCC1 (stereo not drawn) [Example 2-211]
> 7.00	> 6.00	> 7.00	–	–	–	O=C(O)[C@]1(NS(=O)(=O)c2ccc(-c3cc(C(F)(F)F)on3)s2)C[C@@H]1c1ccc(CCCO)cc1 [Example 2-302]
–	–	–	≤ 6.00	≤ 5.00	≤ 5.00	CC1(C)COC(c2ccc(S(=O)(=O)N[C@@]3(C(=O)O)C[C@@H]3c3ccccc3)s2)=N1 [Example 2-54]
> 7.00	≤ 5.00	> 6.00	–	–	–	C[C@@H]1CN(CC2(c3ccccc3)CC2(NS(=O)(=O)c2ccc(-c3ccc(Cl)cc3)s2)C(=O)O)C[C@H](C)O1 (stereo partly drawn) [Example 2-344]
–	–	–	> 6.00	≤ 6.00	> 7.00	CC(=O)Nc1cccc(C2CC2(NS(=O)(=O)c2ccc(-c3ccc(Cl)cc3)cc2)C(=O)O)c1 (stereo not drawn) [Example 1-40]
–	–	–	≤ 5.00	≤ 5.00	≤ 6.00	Cc1nc(-c2ccc(S(=O)(=O)NC3(C(=O)O)CC3c3ccccc3)s2)co1 (stereo not drawn) [Example 2-87]
–	–	–	≤ 5.00	≤ 5.00	≤ 5.00	O=C(O)[C@]1(NS(=O)(=O)c2ccc(C3=CCNCC3)s2)C[C@@H]1c1ccccc1 [Example 2-2, (1S,2R)-2-phenyl-1-[5-(1,2,3,6-tetrahydro-pyridin-4-yl)-thiophene-2-sulfonylamino]-cyclopropanecarboxylic acid hydrochloride]
–	–	–	> 6.00	≤ 6.00	> 7.00	O=C(O)[C@]1(NS(=O)(=O)c2ccc3c(c2)Cc2cc(F)ccc2-3)C[C@@H]1c1ccccc1 [Example 2-141]
> 7.00	> 6.00	≤ 6.00	–	–	–	COc1ccccc1C1(C)CC1(NS(=O)(=O)c1ccc(-c2cc(C(F)(F)F)on2)s1)C(=O)O (stereo not drawn) [Example 2-613]
–	–	–	> 7.00	≤ 5.00	> 7.00	O=C(O)C1(NS(=O)(=O)c2ccc(-c3ccc(Cl)cc3)s2)CC1c1ccccc1OCc1cccnc1 (stereo not drawn) [Example 2-22]

pIC50 (aggrecanase-1; [1])	pIC50 (MMP-1; [2])	pIC50 (Recombinant Human MMP-13; [3])	pIC50 (aggrecanase-1; [4])	pIC50 (MMP-1; [5])	pIC50 (Recombinant Human MMP-13; [6])	SMILES
≤ 6.00	≤ 5.00	≤ 6.00	–	–	–	CC1CCC(c2ccc(S(=O)(=O)N[C@@]3(C(=O)O)C[C@]3(C)c3ccccc3)cc2)CC1 (stereo partly drawn) [Example 2-436]
–	–	–	> 7.00	≤ 6.00	> 6.00	O=C(O)[C@]1(NS(=O)(=O)c2ccc3c(c2)Cc2cc(Cl)ccc2-3)C[C@@H]1c1ccccc1 [Example 2-142]
≤ 6.00	≤ 5.00	≤ 6.00	–	–	–	CNC(=O)[C@]1(NS(=O)(=O)c2ccc(-c3cc(C(F)(F)F)on3)s2)C(C)[C@@H]1c1ccccc1 (stereo partly drawn) [Example 2-297]
> 6.00	≤ 6.00	> 6.00	–	–	–	COCCOCC1(c2ccccc2)CC1(NS(=O)(=O)c1ccc(-c2ccc(Cl)cc2)s1)C(=O)O (stereo not drawn) [Example 2-429]
–	–	–	≤ 6.00	≤ 5.00	> 7.00	O=C(O)C1(NS(=O)(=O)N2CCN(c3ccc(C(F)(F)F)cn3)CC2)CC1c1ccccc1 (stereo not drawn) [Example 2-68]
–	–	–	≤ 5.00	≤ 5.00	> 6.00	CCCC#Cc1ccc(S(=O)(=O)N[C@@]2(C(=O)O)C[C@@H]2c2ccccc2)s1 [Example 2-133]
–	–	–	> 6.00	≤ 6.00	> 6.00	O=C(O)C1(NS(=O)(=O)c2ccc(-c3ccc4c(c3)Cc3ccccc3-4)cc2)CC1c1ccccc1 (stereo not drawn) [Example 1-54]
> 7.00	≤ 6.00	> 7.00	–	–	–	CC(C)(C)OC(=O)NCCCC1(c2ccccc2)CC1(NS(=O)(=O)c1ccc(-c2ccc(Cl)cc2)s1)C(=O)O (stereo not drawn) [Example 2-284]
–	–	–	≤ 5.00	≤ 5.00	≤ 6.00	CCCNC(=O)c1ccc(S(=O)(=O)NC2(C(=O)O)CC2c2ccccc2)s1 (stereo not drawn) [Example 2-93]
> 6.00	> 6.00	> 7.00	–	–	–	C[C@]1(c2ccccc2)C[C@@]1(NS(=O)(=O)c1ccc(-c2ccc(CO)cc2)s1)C(=O)O [Example 2-574]
–	–	–	> 6.00	≤ 6.00	> 7.00	O=C(CN1CCOCC1)Nc1cccc(C2CC2(NS(=O)(=O)c2ccc(-c3cc(C(F)(F)F)on3)s2)C(=O)O)c1 (stereo not drawn) [Example 2-260]
–	–	–	≤ 6.00	≤ 5.00	≤ 5.00	CC1CCN(c2ccc(S(=O)(=O)N[C@@]3(C(=O)O)C[C@@H]3c3ccccc3)s2)CC1 [Example 2-256]
–	–	–	> 7.00	> 6.00	> 7.00	C[C@]1(c2ccccc2)C[C@@]1(NS(=O)(=O)c1ccc(-c2ccc(Cl)c(N)c2)s1)C(=O)O [Example 2-12, (1S,2R)-1-[5-(3-amino-4-chloro-phenyl)-thiophene-2-sulfonylamino]-2-methyl-2-phenyl-cyclopropanecarboxylic acid]
–	–	–	> 7.00	≤ 6.00	> 6.00	O=C(O)C1(NS(=O)(=O)c2ccc(-c3ccc(Cl)cc3)s2)CC1c1ccccc1O (stereo not drawn) [Example 1-102]
> 6.00	≤ 6.00	≤ 6.00	–	–	–	CC1[C@H](c2ccccc2)[C@]1(NS(=O)(=O)N1CCCN(c2ccc(F)cn2)CC1)C(=O)O (stereo partly drawn) [Example 2-462]
> 6.00	> 6.00	> 7.00	–	–	–	CN(C)c1cc(-c2ccc(S(=O)(=O)N[C@@]3(C(=O)O)C[C@]3(C)c3ccccc3)s2)no1 [Example 2-423]
–	–	–	> 6.00	≤ 5.00	> 6.00	CN1CCN(C(=O)c2cccc(C3CC3(NS(=O)(=O)c3ccc(-c4ccc(Cl)cc4)s3)C(=O)O)c2)CC1 (stereo not drawn) [Example 2-200]
–	–	–	> 7.00	≤ 6.00	> 6.00	Nc1cccc(C2CC2(NS(=O)(=O)c2ccc(-c3ccc(Cl)cc3)s2)C(=O)O)c1 (stereo not drawn) [Example 1-128]
–	–	–	≤ 5.00	≤ 5.00	> 6.00	Cn1nc(-c2ccc(S(=O)(=O)NC3(C(=O)O)CC3c3ccccc3)s2)cc1C(F)(F)F (stereo not drawn) [Example 2-16]
